Measurements: PubChem BioAssay AID1918942 (Molecular Pharmacology Branch, DTP, NCI, 2023)
Values joined by “and” are separate entries in the source; they are usually repeats but may differ in a detail not shown here. Equal values may be shown once.

System: 743489-274-T-PDC complex spheroid viability
Test: Anticancer human tumor 743489-274-T-PDC patient-derived renal cell carcinoma cell line growth inhibition
Conditions: for viability, T/C: stronger effect = lower value
Excerpt: Multicellular complex tumor spheroid response to LSD1 Inhibitor Iadademstat in combination with a variety of drugs and investigational agents in selected tumor cell lines
The current study was undertaken to assess response to LSD1 inhibitors in combination with standard-of-care drugs and investigational agents in solid tumor complex spheroid models as well as in the K-562 leukemia. Complex spheroids include a stromal component modeled by human endothelial cells (HUVEC) and fibroblasts modeled by human mesenchymal stem cells (MSCs). The concentration ranges selected for each drug and investigational agent were based upon clinically achievable concentrations if the clinical Cmax of the agent was known.
Compounds. The drugs and investigational agents used in this study are listed on Table 1. All of the agents used, including staurosporine (NSC755774) and gemcitabine (NSC613327), were obtained from the Developmental Therapeutics Program, NCI. FDA-approved anticancer drugs are available from the NCI at http://dtp.nci.nih.gov/branches/dscb/oncology_drugset_explanation.html. Drugs and investigational agents were >95% pure by proton nuclear magnetic resonance (NMR) and liquid chromatography/mass spectrometry (LC/MS). Stock solutions were prepared at 400x in DMSO, stored at -70 degrees C, and diluted in fresh medium prior to their use. The final concentration of DMSO in cell culture wells never exceeded 0.25% (v/v). The FDA-approved anticancer drug set is available from the Developmental Therapeutics Program at https://dtp.cancer.gov/organization/dscb/obtaining/available_plates.htm. All drugs and investigational agents were tested over a range starting from a high concentration at or near the clinical Cmax and decreasing in half-log increments. If the clinical Cmax for an agent had not been determined, the highest concentration tested was 10 microM.
Cell Lines. The patient-derived cancer cell (PDC) lines: 292921-168-R-J2-PDC, K24384-001-R-PDC, and 521955-158-R2-J5-PDC pancreatic carcinomas, 556581-035-R-J1 ovarian carcinoma, 324938-238-R-J1-PDC, 855422-203-R-J1-PDC and 883617-216-R-J1-PDC urothelial bladder carcinomas, 743489-274-T-PDC renal cell carcinoma, 138582-R-J1 Merkel cell tumor, K60290-347-R-J1 and K57222-313-R-J1-PDC glioblastomas, 653999-131-R-J2-PDC, LG0703-F948-PDC, and 349418-098-R-PDC non-small cell lung carcinomas, 885512-296-R-J2-PDC, 171881-019-R-J1-PDC breast carcinomas and 186277-243-T-J2-PDC and 233499-124-R-J2-PDC colon carcinomas were obtained from the NCI Patient-Derived Models Repository (PDMR, https://pdmr.cancer.gov). The established cell lines NCI/ADR-RES (RRID:CVCL_14520 and OVCAR-5 (RRID:CVCL_1628) ovarian carcinomas, 786-O (RRID:CVCL_1051) and A498 (RRID:CVCL_A498) renal cell carcinoma, NCI-H211 (ATCC, cat. CRL-5824; RRID:CVCL_1529), NCI-H196 (ATCC, cat. CRL-5823, RRID:CVCL_1509), SW 1271 (ATCC, cat. CRL-2177, RRID:CVCL_1716) and NCI-H1876 (ATCC, cat. CRL-5902, RRID:CVCL_1503) small cell lung carcinomas, MDA-MB-231 (RRID:CVCL_0062) and MDA-MB-468 (RRID:CVCL_0419)breast carcinomas (10-12). Pooled donor human umbilical vein endothelial cells (HUVEC, Lonza, cat. CC-2519) and human mesenchymal stem cells (hMSC, Lonza, cat. PT-2501) were purchased from Lonza (Walkersville, MD).
Cell Culture. All cells were maintained in an incubator at 37 degrees C and 5% CO2 with 95% humidity. The PDC lines were cultured according to standard operating procedures established by the NCI PDMR (https://pdmr.cancer.gov). Briefly all PDCs were thawed and cultured in Matrigel-coated flasks prepared with a working solution of 1X Ham's F-12 nutrient mix, without supplementation (Invitrogen, Waltham, MA, cat. 11765054), 100 U/mL penicillin-streptomycin (Invitrogen, cat. 15140122), and 2.5% Matrigel (Corning Inc., Corning, NY, cat. 354248) for the first three passages. […]
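Note: spheroids exposed to compounds for 7 days before readout.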
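Throughout, for viability, T/C: 100% = DMSO vehicle control wells.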

Structure (SMILES)	IC50 (curve of compound)	viability, T/C (compound 0.00316 µM)	viability, T/C (compound 0.01 µM)	viability, T/C (compound 0.0316 µM)	viability, T/C (compound 0.1 µM)	viability, T/C (compound 0.316 µM)	viability, T/C (compound 1 µM)	viability, T/C (compound 0.00949 µM)	viability, T/C (compound 0.03 µM)	viability, T/C (compound 0.0949 µM)	viability, T/C (compound 0.3 µM)	other results
CC(C)c1c(-c2ccccc2)nc2c(C#N)c[nH]n2c1=O	> 10000 nM	–	–	106% and 94.8%	100% and 102%	86.4% and 102%	96% and 107%	–	–	–	–	viability, T/C (compound 3.16 µM): 93.2% and 93.5%
CC1(C)CCC(CN2CCN(c3ccc(C(=O)NS(=O)(=O)c4ccc(NCC5CCOCC5)c([N+](=O)[O-])c4)c(Oc4cnc5[nH]ccc5c4)c3)CC2)=C(c2ccc(Cl)cc2)C1	> 10000 nM	–	–	90.8% and 100%	108%	104% and 109%	113% and 111%	–	–	–	–	viability, T/C (compound 3.16 µM): 128% and 106%; viability, T/C (compound 10 µM): 120% and 122%
CC1COCCN1c1cc(-c2ccnn2C)c2ccnc(-c3ccn[nH]3)c2n1 (stereo not given)	> 1000 nM	102% and 81.5%	107%	78.8% and 87.5%	70.9% and 71.9%	71.5% and 56.4%	64.2% and 53.2%	–	–	–	–	–
CC[C@@]1(O)C(=O)OCc2c1cc1n(c2=O)Cc2cc3c(CN(C)C)c(O)ccc3nc2-1	> 100 nM	96.5% and 72.1%	86.4% and 76.7%	75.1% and 60.3%	63.7% and 57.8%	–	–	–	–	–	–	viability, T/C (compound 0.000316 µM): 103% and 92.9%; viability, T/C (compound 0.001 µM): 104% and 83.4%
CCc1c2c(nc3ccc(O)cc13)-c1cc3c(c(=O)n1C2)COC(=O)[C@]3(O)CC	20.7 nM and 5.36 nM	–	–	–	–	–	–	61.9% and 44.5%	40.2% and 45.4%	45.4% and 44.3%	43.2% and 39.3%	viability, T/C (compound 0.000949 µM): 88.1% and 71.3%; viability, T/C (compound 0.003 µM): 68% and 54.2%
COc1cc(Nc2ncc3c(n2)-c2ccc(Cl)cc2C(c2c(F)cccc2OC)=NC3)ccc1C(=O)O	> 1000 nM	102% and 91.3%	91.3% and 102%	89.6% and 92%	92.6% and 90.8%	94.2% and 87.2%	91.7% and 67.7%	–	–	–	–	–
COc1ccc([C@@H](O)c2cc(-c3ncnc4cc(N5CCOCC5)ccc34)c(F)cc2Cl)nn1	1730 nM and 753 nM	–	–	108% and 93.4%	100% and 95.8%	90.5% and 72.5%	59.4% and 43.6%	–	–	–	–	viability, T/C (compound 3.16 µM): 38.7% and 21.3%; viability, T/C (compound 10 µM): 20.8% and 19.4%
NC1CC1c1ccc(-c2cccc(O)c2)cc1 (stereo not given)	–	–	–	–	–	103% [middle of 25 runs]	–	–	–	–	–	IC50 (compound alone, run of 12/07/2021): > 10000 nM
NC1CCC(NC2CC2c2ccccc2)CC1 (stereo not given)	–	–	–	–	–	105% and 107%	–	–	–	–	–	IC50 (compound alone, run of 11/29/2021): > 10000 nM
Nc1ccccc1NC(=O)c1ccc(CNC(=O)OCc2cccnc2)cc1	1160 nM and 758 nM	–	–	–	–	–	–	85.4% and 102%	89.2% and 78%	95.2% and 79.4%	78.8% and 67.1%	viability, T/C (compound 0.949 µM): 54.2% and 47.6%; viability, T/C (compound 3 µM): 32.6% and 26.4%
Nc1ccn(C2OC(CO)C(O)C2(F)F)c(=O)n1 (stereo not given)	> 300 nM	–	–	–	–	–	–	73% and 96.8%	73.7% and 58%	71.6% and 64.1%	65.2% and 63.2%	viability, T/C (compound 0.000949 µM): 82.7% and 61.8%; viability, T/C (compound 0.003 µM): 85.6% and 60.9%
Nc1ncn(C2CC(O)C(CO)O2)c(=O)n1 (stereo not given)	> 1000 nM	105% and 90.1%	98% and 100%	81% and 101%	96.1% and 84.5%	96% and 94.3%	84.3% and 97.7%	–	–	–	–	–

Further lines, with some results ahead:

IC50 (curve of compound)	Structure (SMILES)	viability, T/C (compound 0.00316 µM)	viability, T/C (compound 0.01 µM)	viability, T/C (compound 0.0316 µM)	viability, T/C (compound 0.1 µM)	viability, T/C (compound 0.316 µM)	viability, T/C (compound 1 µM)	viability, T/C (compound 0.00949 µM)	viability, T/C (compound 0.03 µM)	viability, T/C (compound 0.0949 µM)	viability, T/C (compound 0.3 µM)	other results
7.31 nM and 8.09 nM	CC(C)CC(NC(=O)C(Cc1ccccc1)NC(=O)c1cnccn1)B(O)O (stereo not given)	106% and 94.2%	31% and 40%	26.9% and 31.4%	24.4% and 27.6%	–	–	–	–	–	–	viability, T/C (compound 0.000316 µM): 102% and 104%; viability, T/C (compound 0.001 µM): 93.9% and 105%
> 100 nM and 84.7 nM	CC(C)CC(NC(=O)CNC(=O)c1cc(Cl)ccc1Cl)B1OC(=O)CC(CC(=O)O)(C(=O)O)O1 (stereo not given)	99.5% and 94.1%	84.9% and 83.3%	84% and 76.2%	58.8% and 44.4%	–	–	–	–	–	–	viability, T/C (compound 0.000316 µM): 97.9% and 109%; viability, T/C (compound 0.001 µM): 89.1% and 112%
> 10000 nM	CC1COCCN1c1cc(C2(S(C)(=N)=O)CC2)nc(-c2ccnc3[nH]ccc23)n1 (stereo not given)	–	–	93.4% and 107%	112% and 104%	99.9% and 87%	93.9% and 91.4%	–	–	–	–	viability, T/C (compound 3.16 µM): 100% and 90.3%; viability, T/C (compound 10 µM): 81.3% and 63.8%
> 3000 nM	CCN(c1cc(-c2ccc(CN3CCOCC3)cc2)cc(C(=O)NCc2c(C)cc(C)[nH]c2=O)c1C)C1CCOCC1	–	–	–	–	–	–	106% and 107%	94.5% and 105%	87.8% and 92.8%	97.2% and 111%	viability, T/C (compound 0.949 µM): 98.5% and 105%; viability, T/C (compound 3 µM): 95.9% and 105%
> 3000 nM	COc1cc(C2c3cc4c(cc3C(OC3OC5COC(C)OC5C(O)C3O)C3COC(=O)C23)OCO4)cc(OC)c1O (stereo not given)	–	–	–	–	–	–	98.2% and 111%	114% and 112%	70.3% and 81.1%	92.8% and 99.4%	viability, T/C (compound 0.949 µM): 98.9% and 88.8%; viability, T/C (compound 3 µM): 82% and 91.5%
> 100 nM	Cn1ncnc1C1c2n[nH]c(=O)c3cc(F)cc(c23)NC1c1ccc(F)cc1 (stereo not given)	90.2% and 98.6%	95.9% and 90.8%	93.7% and 92.8%	91.4% and 84.3%	–	–	–	–	–	–	viability, T/C (compound 0.000316 µM): 88.5% and 99.7%; viability, T/C (compound 0.001 µM): 100% and 110%
> 3000 nM	NS(=O)(=O)OCC1CC(n2ccc3c(NC4CCc5ccccc54)ncnc32)CC1O (stereo not given)	–	–	–	–	–	–	90.9% and 95.7%	95.9% and 111%	111% and 103%	118% and 135%	viability, T/C (compound 0.949 µM): 116% and 125%; viability, T/C (compound 3 µM): 121% and 101%
> 300 nM	Nc1ncn(C2CC(O)C(CO)S2)c(=O)n1 (stereo not given)	–	–	–	–	–	–	90.8% and 92%	80.2% and 82.5%	89.9% and 81.5%	88.7% and 75.2%	viability, T/C (compound 0.000949 µM): 106% and 96.8%; viability, T/C (compound 0.003 µM): 108% and 96.2%
1610 nM and 1010 nM	O=C(C=Cc1cccc(S(=O)(=O)Nc2ccccc2)c1)NO	–	–	–	–	–	–	89.9% and 92.2%	83.1% and 89.3%	76.4% and 75%	66.4% and 65%	viability, T/C (compound 0.949 µM): 55.4% and 51.6%; viability, T/C (compound 3 µM): 43.6% and 35.7%
> 1000 nM	O=C(C=Cn1cnc(-c2cc(C(F)(F)F)cc(C(F)(F)F)c2)n1)NNc1cnccn1	106% and 109%	108% and 91%	121% and 117%	115% and 97.5%	94.2% and 86.3%	81.2% and 73.2%	–	–	–	–	–
> 10000 nM	O=C(c1cc(Cc2n[nH]c(=O)c3ccccc23)ccc1F)N1CCN(C(=O)C2CC2)CC1	–	–	95.3% and 101%	88.2% and 113%	102% and 108%	108%	–	–	–	–	viability, T/C (compound 3.16 µM): 94.5% and 93.2%; viability, T/C (compound 10 µM): 83% and 82.5%
